Test results published in paper PMC9814530, “Rapid de novo discovery of peptidomimetic affinity reagents for human angiotensin converting enzyme 2” (Communications Chemistry, 2022).
Entries after “also recorded” stand apart in the source; their conditions may differ. Where a SMILES comes first, the peptide text is derived from it. [ ]: non-standard residue; d: D form. Phe(3,4-F2) = N[C@@H](Cc1ccc(F)c(F)c1)C(=O)O; Ala(4-thiazolyl) = N[C@@H](Cc1cscn1)C(=O)O; Phe(4-NH2) = Nc1ccc(C[C@H](N)C(=O)O)cc1; Met(O2) = CS(=O)(=O)CC[C@H](N)C(=O)O; Ala(cPr) = N[C@@H](CC1CC1)C(=O)O; Cha = N[C@@H](CC1CCCCC1)C(=O)O; β3hS = N[C@@H](CO)CC(=O)O; Orn = NCCC[C@H](N)C(=O)O

Key:
ACE2 [1] = target: T1, ACE2 (Homo sapiens, UniProt Q9BYF1); test: Bio-layer interferometry (BLI) binding of immobilized biotinylated peptides to ACE2; details: 500 nM of ACE2
T1 sequence (Q9BYF1 18-740 limits assumed): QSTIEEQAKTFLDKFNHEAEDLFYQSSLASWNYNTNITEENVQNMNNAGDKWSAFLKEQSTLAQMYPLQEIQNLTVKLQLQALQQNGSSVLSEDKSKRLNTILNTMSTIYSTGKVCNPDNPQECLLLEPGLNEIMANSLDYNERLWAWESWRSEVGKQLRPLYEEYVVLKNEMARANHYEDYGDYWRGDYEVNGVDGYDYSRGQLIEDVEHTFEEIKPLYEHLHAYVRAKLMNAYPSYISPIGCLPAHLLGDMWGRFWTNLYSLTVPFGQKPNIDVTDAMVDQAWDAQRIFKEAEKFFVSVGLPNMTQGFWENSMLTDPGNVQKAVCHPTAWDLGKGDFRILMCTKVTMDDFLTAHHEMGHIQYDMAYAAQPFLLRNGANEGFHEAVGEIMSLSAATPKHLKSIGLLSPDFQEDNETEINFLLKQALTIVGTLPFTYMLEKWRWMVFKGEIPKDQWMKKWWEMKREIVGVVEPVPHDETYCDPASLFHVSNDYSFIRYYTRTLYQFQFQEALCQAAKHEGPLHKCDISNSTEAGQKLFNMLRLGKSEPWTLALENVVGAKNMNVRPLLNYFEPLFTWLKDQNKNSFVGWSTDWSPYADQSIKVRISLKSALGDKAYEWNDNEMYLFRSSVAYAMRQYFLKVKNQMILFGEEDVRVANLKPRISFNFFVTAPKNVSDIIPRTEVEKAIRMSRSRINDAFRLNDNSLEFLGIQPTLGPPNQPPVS
Experimental: (§1) Peptide binding validation was carried out using the ForteBio Octet RED96 system. The chamber temperature was kept constant at 30 °C with a plate agitation speed at 1000 rpm. Briefly, streptavidin (SA)-coated biosensor tips were dipped into 200 μL of 1.0–2.0 μM biotinylated peptide solution (in a kinetic buffer (K.B.): 1 × PBS with 0.1% BSA and 0.02% Tween-20) for peptides immobilization. Once loaded with peptides, the tips were then moved into solutions containing various concentrations (1000, 500, 250, 125, and 62.5 nM) of recombinant ACE2 protein (purchased from Sino Biological, Catalog number 10108-H08H) in the K.B. to obtain the association curve. After the 180 s association step, the tips were moved back into the K.B. to obtain the dissociation curve. Buffer-only and protein-only conditions (concentration at 1000 nM) were used as references for background subtraction. The association and dissociation curves were fitted with the ForteBio Biosystems Data Analysis Software under 5 experimental conditions (n = 5, global fitting algorithm, binding model 1:1) to calculate the apparent dissociation constant (KD).
Supplementary Note 4: Binding affinity measurements
4.1 BLI raw binding data of noncanonical peptides […]
affinity was reported using the kinetic fitting results ( KD is calculated by divide the […]
off rate by on rate). […] The ACE2
(§2) (1 picture or pasted object on this page, not shown here)
4.2 BLI raw binding data of canonical peptides
Supplementary Fig. 20. The BLI binding curve fitting (red lines) of ABP C1-C4 and ABP C7-C9 from Library 1 AS-MS against ACE2.
ACE2 concentration was 250 nM.

12ca5 = test: BLI binding to an unrelated (off-target) protein
Experimental: as §1, with “(KD). […]” for “(KD).”
4.4 The binding of ABP noncanonical peptides to an unrelated protein
N6, and N8 to an unrelated protein, 12ca5, measured by BLI at concentration
as §2

ACE2 [2] = target: T1, ACE2; test: ACE2 pulldown from human serum (SDS-PAGE); type: binding; details: biotinylated peptide on streptavidin magnetic beads, ACE2 in 5% normal human serum, 1.0 h 4 °C, 6 M urea elution
Experimental: After removing the supernatant and washing off the unbound fraction, the bound material was eluted with a high concentration of urea and analyzed using the sodium dodecyl sulfate–polyacrylamide gel electrophoresis (SDS-PAGE). […] Bound ACE2 was eluted for subsequent analysis. b The SDS-PAGE image with samples showing from left to right lanes: (1) molecular weight standard; (2) purified ACE2 protein (1.5 µg) as a loading control; (3) normal human serum as a control; (4) normal human serum mixed with ACE2 (1.5 µg); (5) elution of the bound fraction from the magnetic beads. NHS, Normal Human Serum (5%). Following a previous protocol, streptavidin-coated magnetic beads (100 µL, at 10 mg/mL) were pre-washed with blocking buffer (1 × PBS with 0.05% Tween-20, pH 7.4) and captured on a magnetic separation rack. The beads were then re-suspended in 1.0 mL of the same blocking buffer. […] After 30 min of incubation at 4 °C, the supernatant was removed and the beads were washed with 1 × PBS (3 × 1.0 mL) before incubation with the protein mixture. Soluble ACE2 (5 µL, 0.62 mg/mL) was mixed with 50 µL normal human serum in 1 × PBS (pH 7.4) to a final volume of 1.0 mL. The magnetic beads displaying immobilized ABP N1 were then added into the protein complex. […]

ACE2 [3] = target: T1, ACE2; test: ELISA detection of ACE2 coated from 1 x PBS; type: binding; details: ACE2 in 1 x PBS 10 pM-100 nM coated; biotinylated peptide 100 nM; streptavidin-HRP, TMB, A450
Experimental: (§3) However, we observed a decreased detection sensitivity presumably due to the decreased amount of ACE2 being immobilized on the plate with many other serum proteins present. […] The plate was incubated with ABP N1 or control peptide, followed by streptavidin-HRP and TMB substrate. Absorbance was measured at 450 nm. The experiment was performed in technical triplicates (n = 3). Each data point, the mean signal as a bar, and error bars from experimental standard deviation, and statistical significance calculated with the unpaired Student’s t-test are shown. A serial dilution of soluble ACE2 was coated onto an ELISA plate (96-well format) overnight at 4 °C. The next day, the plate was blocked with 5% BSA in 1 × PBS supplement with 0.05% Tween-20 (PBST, pH 7.4) for 2–3 h at room temperature. […] Control groups are biotinylated peptide ABP N8 and PBST alone. The supernatant was then removed, and the wells were washed with PBST (3× 200 µL). Streptavidin-HRP conjugate in PBST (0.25 µg/mL, 100 µL) was added to each well and incubated for 30 min at room temperature. The plate was PBST-washed again (3 × 200 µL) before color development with 100 µL 1-Step™ Ultra TMB-ELISA Substrate Solution (Thermo Fisher, Catalog number 34028). After 10 min, the reaction was quenched with 2.0 M sulfuric acid (100 µL). Finally, the absorbance at 450 nm was measured on a microplate reader (BioTek) for all treated wells. […]

ACE2 [4] = target: T1, ACE2; test: ELISA detection of ACE2 coated from a mixture with normal human serum; type: binding; details: plate coated with normal human serum and exogenous ACE2; biotinylated peptide 100 nM; streptavidin-HRP, TMB, A450
Experimental: as §3

ACE2 [5] = target: T1, ACE2; test: BLI binding competition of known ACE2 binders (AngII, MLN-4760) on the ABP-ACE2 interaction; set-up: Soluble ACE2 (5 µL, 0.62 mg/mL) was mixed with 50 µL normal human serum; details: immobilized biotinylated peptide

## CS(=O)(=O)CC[C@H](NC(=O)[C@H](CC1CCCCC1)NC(=O)[C@H](Cc1cscn1)NC(=O)C[C@H](CO)NC(=O)[C@H](CCCN)NC(=O)[C@H](CCC(N)=O)NC(=O)[C@H](CCCN)NC(=O)[C@H](Cc1ccc(F)c(F)c1)NC(=O)[C@H](Cc1cscn1)NC(=O)[C@@H](N)CC1CC1)C(=O)NCC(=O)N[C@@H](Cc1ccc(N)cc1)C(=O)N[C@@H](CCCCN)C(N)=O [ABP N1] (H-[Ala(cPr)][Ala(4-thiazolyl)][Phe(3,4-F2)][Orn]Q[Orn][β3hS][Ala(4-thiazolyl)][Cha][Met(O2)]G[Phe(4-NH2)]K-NH2)
ACE2 [1]
  BLI response signal: ~ 1.3 nm
12ca5; 500 nM ACE2 versus 500 nM 12ca5, BLI
  higher signal for ACE2 than for 12ca5: ~ 5 fold
12ca5; 500 nM of the off-target protein (12ca5)
  BLI response signal: 0.25 nm
12ca5; BLI, 12ca5 at 500 nM
  binding to unrelated protein 12ca5 (in words): minimal binding; also recorded: No apparent binding
ACE2 [2]
  pull-down of ACE2 from human serum: selective enrichment of ACE2 protein
ACE2 [3]
  ELISA detection of ACE2 (in words): picomolar concentration of ACE2 was detected
ACE2 [4]
  ELISA detection of ACE2 in human serum (in words): dose-dependent ACE2 detection
ACE2 [5]; 500 nM ACE2 + 5 uM AngII (10-fold excess)
  inhibition of ABP binding to ACE2 by AngII: not inhibited
ACE2 [5]; 500 nM ACE2 + 5 uM MLN-4760 (10-fold excess)
  inhibition of ABP binding to ACE2 by MLN-4760: partially inhibited
